Measurements reported in patent US9737073B2, “Herbicidal weed control from combinations of fluroxypyr and ALS inhibitors” (Dow AgroSciences LLC, priority 2014, dated 2017).
“And” between values parts separate entries of the source, which are not always exact repeats. Equal values may be shown once.

Legend:
Format in all cases: in vivo
[1] = tested on: Amaranthus rudis Sauer (common waterhemp, AMATA); experiment: Postemergence herbicidal weed control, fluroxypyr-meptyl and diclosulam, greenhouse trials (Table 1)
Procedure: (§1) Seeds of the desired test plant species were planted in a peat-based potting soil, Metro-Mix 360® in plastic pots with a surface area of 128 square centimeters (cm^2). Metro-Mix 360® consists of formulated Canadian sphagnum peat moss, coarse perlite, bark ash, a starter nutrient charge (with gypsum), a slow-release nitrogen and dolomitic limestone. The plants were grown for 7-19 days in a greenhouse with an approximate 14-hour (h) photoperiod which was maintained at about 29° C. during the day and 26° C. during the night. Nutrients and water were added on a regular basis and supplemental lighting was provided with overhead metal halide 1000-Watt lamps as necessary. The plants were treated with postemergence foliar applications when they reached the third to fourth true leaf stage. All treatments were applied using a randomized complete block trial design, with 4 replications per treatment.
(§2) Treatments consisted of the compounds as listed in Tables 1 to 4, each compound applied alone and in combination. Commercially formulated products of fluroxypyr-meptyl (STARANE™, 333 grams acid equivalent per liter (g ae/L) EC), diclosulam (SPIDER® 84WG), cloransulam-methyl (FIRSTRATE™ 84WG), chlorimuron-ethyl (CLASSIC® 25WG) and thifensulfuron-methyl (HARMONY® 50SG). Formulated amounts of fluroxypyr-meptyl, diclosulam, cloransulam-methyl, chlorimuron-ethyl and thifensulfuron-methyl were placed in 60 milliliter (mL) glass vials and dissolved in a volume of 30 or 60 mL of a water solution containing Agri-dex crop oil concentrate in a 1% volume per volume (v/v) ratio. Compound requirements are based upon either a 30- or a 60-mL application volume at a rate of 200 liters per hectare (L/ha). Spray solutions of the mixtures were prepared by adding the stock solutions to the appropriate amount of dilution solution to form either a 30- or a 60-mL spray solution with active ingredients in single and two-way combinations. Formulated compounds were applied to the plant material with an overhead Generation III Research Sprayer manufactured by DeVries Manufacturing in Hollandale, Minn., USA. The track sprayer was equipped with an 8003E nozzle calibrated to deliver 200 L/ha at a spray height of 18 inches (43 centimeters (cm)) above average plant canopy.
(§3) The treated plants and untreated control plants were placed in a greenhouse as described above and watered by sub-irrigation to prevent wash-off of the test compounds.
(§4) Treatments were rated at 7 to 21 days after application (DAA) as compared to the untreated control plants. Visual weed control was scored on a scale of 0 to 100 percent where 0 corresponds to no injury and 100 corresponds to complete kill.
(§5) Colby's equation was used to determine the herbicidal effects expected from the mixtures (Colby, S. R. Calculation of the synergistic and antagonistic response of herbicide combinations. Weeds 196715, 20-22). A t-test (alpha=0.05) between Colby predictions and observed combinations was used to test for significant differences indicating synergy or antagonism. The results presented in the Tables were significant according to the described criteria.
(§6) The following equation was used to calculate the expected activity of mixtures containing two active ingredients, A and B: Expected=A+B−(A×B/100) • A=observed efficacy of active ingredient A at the same concentration as used in the mixture; • B=observed efficacy of active ingredient B at the same concentration as used in the mixture.

[2] = tested on: Abutilon theophrasti (velvetleaf, ABUTH); experiment: as above
Procedure: as §1, §2, §3, §4, §5, §6

[3] = tested on: Amaranthus rudis Sauer (common waterhemp, AMATA); experiment: Postemergence herbicidal weed control, fluroxypyr-meptyl and cloransulam-methyl, field trials (Table 2)
Procedure: as §1, §2, §3, §4
(§7) Field trials were conducted using standard herbicide small plot research methodology. Plots varied from 3×3.3 meter (m) to 4.5×10 m (width×length) with 4 replicates per treatment. The crops used in the field trials were grown using normal cultural practices for land preparation, fertilization, seeding and maintenance to ensure good growth of the crop and the weeds.
(§8) All treatments in the field trials were applied using either pressurized air or carbon dioxide (CO2) backpack or bicycle sprayers calibrated to apply 100-187 L/ha spray volume. Flat Fan spray nozzles were used in all trials, with water as the diluent applied at 275-300 kilopascals (kPa). Weed sizes at application ranged from 10 to 40 cm tall. Commercially available products of fluroxypyr-meptyl (STARANE™, 180 and 333 g ae/L EC), diclosulam (SPIDER® 84WG), and thifensulfuron-methyl (HARMONY® 75WG) were mixed in water at appropriately formulated product rates to achieve the desired rates based on a unit area of application (hectare) to achieve the desired rates as shown. No adjuvants were tank-mixed with any treatments applied in the field trials. Treatments were rated at 14-26 days after application as compared to the untreated control plants. […]

[4] = tested on: Abutilon theophrasti (velvetleaf, ABUTH); experiment: as above
Procedure: as §1, §2, §3, §4, §7, §8

[5] = tested on: Chenopodium album (common lambsquarters, CHEAL); experiment: as above
Procedure: as §1, §2, §3, §4, §7
as §8, with “[…] Visual weed control was scored on a scale of 0” for “Treatments were rated at 14-26 days after application as compared”, “100 percent where 0 corresponds to no injury and 100 corresponds to complete kill.” for “the untreated control plants.”

CCCCCCC(C)OC(=O)COc1nc(F)c(Cl)c(N)c1Cl (stereo not drawn) [Fluroxypyr-meptyl, fluroxypyr-methylheptyl ester]
Fluroxypyr-meptyl Mean % weed control ([1]; 8DAA1, 50 g ae/ha): 60.0%
Fluroxypyr-meptyl Mean % weed control ([1]; 14DAA1, 50 g ae/ha): 43.8%
Fluroxypyr-meptyl Mean % weed control ([1]; 14DAA1, 100 g ae/ha): 37.5%
Fluroxypyr-meptyl Mean % weed control ([1]; 21DAA1, 50 g ae/ha): 37.5%
Fluroxypyr-meptyl Mean % weed control ([1]; 21DAA1, 100 g ae/ha): 38.8%
Fluroxypyr-meptyl Mean % weed control ([2]; 14DAA1, 25 g ae/ha): 70.0%
Fluroxypyr-meptyl Mean % weed control ([2]; 21DAA1, 25 g ae/ha): 72.5%
Fluroxypyr-meptyl Mean % weed control ([3]; 8DAA1, 25 g ae/ha): 42.5%
Fluroxypyr-meptyl Mean % weed control ([3]; 14DAA1, 25 g ae/ha): 21.3%
Fluroxypyr-meptyl Mean % weed control ([3]; 21DAA1, 25 g ae/ha): 22.5%
Fluroxypyr-meptyl Mean % weed control ([4]; 14DAA1, 25 g ae/ha): 68.3% and 70.0%
Fluroxypyr-meptyl Mean % weed control ([4]; 21DAA1, 25 g ae/ha): 71.7% and 72.5%
Fluroxypyr-meptyl Mean % weed control ([5]; 8DAA1, 25 g ae/ha): 33.3%
Fluroxypyr-meptyl Mean % weed control ([5]; 14DAA1, 25 g ae/ha): 10.0%
Fluroxypyr-meptyl Mean % weed control ([5]; 14DAA1, 100 g ae/ha): 33.3%
Fluroxypyr-meptyl Mean % weed control ([5]; 21DAA1, 25 g ae/ha): 18.3%
Fluroxypyr-meptyl Mean % weed control ([5]; 21DAA1, 50 g ae/ha): 18.3%
Fluroxypyr-meptyl Mean % weed control ([5]; 21DAA1, 100 g ae/ha): 21.0%
